Legend:
PDI [1] = target: T1, PDI (Homo sapiens, UniProt P07237); assay: Resonant waveguide optical biosensor binding assay; parameters: purchased Sino Biological Inc., Beijing, China; conditions: immobilized human recombinant protein, curve fitting
Experimental: (§1) Protein immobilization was accomplished by applying 10 μL of 50 μg/mL human PDI (Sino Biological Inc., Beijing, China) or 50 μg/mL human HSP70 (Sino Biological) or 100 μg/mL human HSP90 (Sino Biological) in 20 mM sodium acetate pH 5.5 into a preactivated 384-well biochemical plate (Perkin Elmer) and incubating overnight at 4°C. The microplates were subsequently washed three times with assay buffer (PBS, pH 7.4/0.005% Tween 20/3% DMSO) and, after 25 minutes thermal equilibration, a baseline reading was taken in the Enspire Multimode Plate Reader (Perkin Elmer). Finally, 15 μL assay buffer was added including different concentrations of Ac-915 or Ac-2010. The Enspire response is measured as a shift in reflected wavelength and is expressed in picometers (pm). The affinity (KD) was calculated using a curve fitting method.
Direct biomolecular interactions were determined between human recombinant and purified HSP70, HSP90, PDI proteins and Ac-915 and Ac-2010 with resonant waveguide optical biosensor technology in a biochemical binding assay. The technology is based on a microplate with resonant waveguide optical biosensors integrated into each well and a high throughput screening-compatible optical reader (Enspire system, Perkin Elmer). The biochemical interaction between the small molecule and the protein was measured as a shift in reflected wavelength and is expressed in picometers (pm). […]

Hep3B [2] = assay: ROS determination (DCFDA fluorescence, FACS); type: cell-based, human
Experimental: ROS generation was determined by the increase in DCFDA (2',7'-dichlorodihydrofluorescein diacetate, Sigma) fluorescence after drug stimulation. HepG2 cells were washed, resuspended in 1% bovine serum albumin in Hanks buffered saline solution (BSA-HBSS) at 10^6 cells/mL and maintained at 37°C for analysis. Cells were treated with the indicated drugs (Ac-915, Ac-2010). DCFDA was added 60 min prior to harvest, at 2 μM final concentration and intracellular ROS production was measured by using a fluorescence activated cell sorter (Beckton Dickinson) with 20,000 events/test. All the other parameters and calculations were as described before.
Toxic compounds and numerous anticancer agents interfere with chaperone and ER functions leading to cellular stress which is manifested by elevated reactive oxygen species (ROS) and dramatic decrease in the anti-oxidant, glutathione (GSH) level. To investigate whether Ac-915 and Ac-2010 exert a pro-oxidative effect as determined earlier for other amino-trifluoro-phthalimides and “redox-reactive” thalidomide analogs, we measured the presence of ROS in human hepatocellular carcinoma cells (Hep3B) Figure 4a. To reveal the correlation of depletion of glutathione and ROS production of the analogs we determined the intracellular concentrations of glutathione. […]

DEN-induced liver tumors = assay: DEN-induced hepatocellular carcinoma in Matn2-/- mice; type: in vivo; conditions: started 4 months after DEN, assessed 8 months after DEN
Experimental: All mice were fed a commercial diet and water ad libitum and were housed in an animal facility under a 12 h light/dark cycle at constant temperature and humidity. For all of our studies, we employed male Matn2-deficient mice (Matn2^−/−) congenic in the 129/Sv genetic background.
For studies of liver tumor development, 15-day-old mice were treated with a single dose of DEN (Sigma-Aldrich, Budapest, Hungary) dissolved in saline at a dose of 25 mg/kg body weight by i.p. injection. 4 months after DEN injection mice were treated with either Ac-915 for 3 months (n = 15) or with Ac-2010 for 1 month (n = 10). Mice were killed 8 months after DEN administration for determination of tumor occurrence (number of tumor nodules) and liver mass index (liver weight/body weight × 100). Treatments were conducted by i.p. injection of Ac-915 at a dose of 10 mg/kg body weight three times a week or Ac-2010 at a dose of 4 mg/kg body weight three times a week.
For studies of liver tumor development, 15-day-old mice were treated with a single dose of DEN as described previously. Mice in the Ac-915 treated group (n = 15) were treated 4 months after DEN treatment for an additional 3 months. […] Mice were killed 8 months after DEN administration and the number and size of tumors and liver mass index were determined.
Liver samples were analyzed at the same time point, 8 months after DEN administration. […]

Huh7 [3] = assay: Real-time cytotoxicity, xCELLigence System (RT-CES); type: cell-based, human; conditions: Huh7, impedance monitored for 48 h
Experimental: (§2) Cytotoxicity and cell migration was monitored with the real-time cell electronic sensing, xCELLigence System (RT-CES, Acea-Roche). Cytotoxicity effects of Ac-2010 and Ac-915 compounds were tested on two different hepatocellular carcinoma cell lines (HepG2 and Hep3B). The RT-CES 96-well E-plate was coated with gelatin and then washed twice with PBS. Growth media (respective to cell types) were then gently dispensed into each well of the 96-well E-plate for background readings by the RT-CES system prior to addition of cell suspension at a density of 6000 cells/well. Devices containing the cell suspension were kept at 37° in a CO2 incubator for 8 h prior to treatment with different concentrations of Ac-2010 and Ac-915. Cell growth was monitored for 48 h by measurements of electrical impedance every 5 min.
(§3) Cytotoxic effects of Ac-915 and Ac-2010 compounds were also tested by the real-time cell electronic sensing, xCELLigence System (RT-CES) on two different hepatocellular carcinoma cell lines (Huh7, HepG2). This technology is based on proprietary microelectronic cell sensor arrays that are integrated in the bottom of the microtiter plates (96-well E-plate). When cells are cultured in a well, impedance is measured between sensor electrodes and the attached cells that act as insulators, which is converted into cell index number.

HepG2 [4] = assay: as above; type: cell-based, human; conditions: for Cytotoxic effect in real time (cell index): HepG2, impedance monitored for 48 h
Experimental: as §2, §3

human HSP90 = assay: Resonant waveguide optical biosensor binding assay; conditions: immobilized human recombinant protein, curve fitting
Experimental: as §1
(§4) Direct biomolecular interactions were determined between human recombinant and purified HSP70, HSP90, PDI proteins and Ac-915 and Ac-2010 with resonant waveguide optical biosensor technology in a biochemical binding assay. The technology is based on a microplate with resonant waveguide optical biosensors integrated into each well and a high throughput screening-compatible optical reader (Enspire system, Perkin Elmer). The biochemical interaction between the small molecule and the protein was measured as a shift in reflected wavelength and is expressed in picometers (pm). The binding of both analogs to each of the protein was specific and saturable with the dose response (data not shown).

human HSP70 = target: T2, human HSP70 (Homo sapiens, UniProt P0DMV8); assay: Resonant waveguide optical biosensor binding assay; conditions: immobilized human recombinant protein, curve fitting
T2 construct: purchased Sino Biological
T2 sequence (P0DMV8 whole entry): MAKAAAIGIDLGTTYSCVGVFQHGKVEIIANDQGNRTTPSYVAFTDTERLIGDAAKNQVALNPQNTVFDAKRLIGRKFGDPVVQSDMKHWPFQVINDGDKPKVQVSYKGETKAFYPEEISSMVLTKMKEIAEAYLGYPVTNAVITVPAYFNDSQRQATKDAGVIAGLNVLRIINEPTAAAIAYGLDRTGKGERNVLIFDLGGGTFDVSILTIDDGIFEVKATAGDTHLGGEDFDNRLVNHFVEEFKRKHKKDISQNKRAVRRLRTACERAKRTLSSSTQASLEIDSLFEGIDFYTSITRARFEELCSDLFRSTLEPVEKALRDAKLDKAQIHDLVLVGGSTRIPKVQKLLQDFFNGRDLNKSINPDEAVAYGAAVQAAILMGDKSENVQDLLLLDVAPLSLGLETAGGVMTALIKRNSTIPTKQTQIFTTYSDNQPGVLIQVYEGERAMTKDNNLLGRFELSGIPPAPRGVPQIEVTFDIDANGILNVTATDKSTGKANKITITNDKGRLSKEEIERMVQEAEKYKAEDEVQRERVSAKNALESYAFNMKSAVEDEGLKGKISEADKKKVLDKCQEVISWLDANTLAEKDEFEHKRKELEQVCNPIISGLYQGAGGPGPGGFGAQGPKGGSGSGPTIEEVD
Experimental: as §1, §4

Hep3B [5] = assay: Glutathione measurement (GSH-Glo); type: cell-based, human; conditions: treated Hep3B cells
Experimental: HepG2 cells (20000 cells per well in a 96-well plate) were incubated with Ac-915 in 50 μl PBS for 2 hours in a humidified atmosphere of 95% air and 5% CO2. 50 μl aliquots of prepared 2X GSH-GloTM Reagent (GSH-GloTM Glutathione assay; Promega, Madison, WI) were added to the wells and incubation continued at room temperature for 30 minutes. 100 μl of reconstituted Luciferin Detection Reagent (Promega) was added to each well and cells were incubated for 15 minutes further. Negative controls and blank reactions were also prepared. The amount of light produced was detected by luminometer.
Toxic compounds and numerous anticancer agents interfere with chaperone and ER functions leading to cellular stress which is manifested by elevated reactive oxygen species (ROS) and dramatic decrease in the anti-oxidant, glutathione (GSH) level. To investigate whether Ac-915 and Ac-2010 exert a pro-oxidative effect as determined earlier for other amino-trifluoro-phthalimides and “redox-reactive” thalidomide analogs, we measured the presence of ROS in human hepatocellular carcinoma cells (Hep3B) Figure 4a. To reveal the correlation of depletion of glutathione and ROS production of the analogs we determined the intracellular concentrations of glutathione. To determine whether Ac-915 and Ac-2010 affect intracellular GSH levels Hep3B cells were treated with compounds and GSH levels were recorded.

[6] = Tissue distribution by fluorescent confocal microscopy of native tissue sections after i.v. injection; type: in vivo; conditions: mice, i.v. 20 mg/kg
Experimental: Mice were injected i.v. with Ac-915 or Ac-2010 (20 mg/kg) and after different time points tissues were dissected, washed in PBS, embedded in Tissue-Tek® O.C.T™ medium. After fast-freezing, the samples were stored at −20°C. Tissue sections (20 μm) were prepared by using a Leica CM1950 cryostat at −20°C. From each tissue (liver, brain, kidney, muscle, heart) three independent images were recorded as above. Images were analyzed with the Olympus Fluoview 1.6 Ver Viewer software.
To determine the tissue distribution of trifluor-amino-phtalimides, compounds were administered by i.v. injection into mice, the animals were killed at different time points and different organs were dissected. Native microscope sections were prepared and analyzed under fluorescent microscope. Because our analogs have strong inherent blue fluorescence, relative tissue distribution can be determined by using fluorescent microscopy with 405 nm laser with DAPI configuration. […] The target organs of Ac-915 seemed to be the kidney and preferentially, the liver.

PDI [7] = target: T1, PDI; assay: Protein disulfide isomerase assay (catalytic reduction of insulin, turbidity at 650 nm); type: biochemical; parameters: purchased Sino Biological; conditions: insulin reduction in presence of 1 mM DTT, 25°C
Experimental: The assay is based on the measurement of the catalytic reduction of insulin as described by Lundstrom and Holmgren. In this assay, PDI facilitates the reduction of insulin in the presence of DTT. The reduced insulin chains aggregate, and the turbidity is monitored spectrophotometrically at 650 nm. The assay was performed in a 96-well plate format and a volume of 30 μl in the presence of 1 mM DTT, 1 μg PDI (Sino Biological), 0.14 mM bovine pancreas insulin (Sigma), and 0.2 mM EDTA in 100 mM potassium phosphate, pH 7.0. The progress of the reaction was monitored on a 96-well plate reader (Model 680 Microplate Reader, Bio-Rad Laboratories) at 650 nm for 95 minutes at 25°C. Ac-915, Ac-2010 or DMSO control was added prior to the addition of enzyme at the concentrations indicated. The nonenzymatic reduction of insulin by DTT was recorded in a control well without PDI. IC50 values of the compounds were calculated using nonlinear regression analysis.
These values are in good correlation with the KD values determined by direct biochemical interaction measurements using waveguide optical biosensors. The activity of PDI was based on the measurement of the catalytic reduction of insulin as described by Lundstrom and Holmgren. In this assay both analogs inhibited the PDI-induced reduction of insulin in the presence of dithiothreitol. […]

Huh7 [8] = assay: MTS cytotoxicity assay (CellTiter 96 AQueous); type: cell-based; conditions: Homo sapiens, Huh-7, 48 h exposure
Experimental: (§5) Hep3B and HepG2 cells were grown in mixture of Dulbecco’s Modified Eagle Medium (D-MEM) (high glucose) (Gibco BRL, Carlsbad, CA, USA) and Nutrient Mixture F-12 Ham (Sigma, St. Louis, MO, USA) containing penicillin (50 IU/ml)–streptomycin ([…]) and 10% fetal bovine serum. For cytotoxicity assays, cells were seeded at a density of 10.000 cells per well into 96-well cell culture plates and maintained in a humidified atmosphere of 95% air and 5% CO2 for 12 h, then treated with different concentrations of Ac-2010 or Ac-915. MTS (3-(4,5-dimethylthiazol-2-yl)-5-(3-carboxymethoxy-phenyl)-2-(4-sulfophenyl)-2H-tetrazolium) assay was applied to drug treated and control (0.2% DMSO) cells with CellTiter 96® AQueous Assay (Promega, Madison, WI) according to the manufacturer’s protocol.
(§6) Their cytotoxic effects on human hepatocellular carcinoma cell lines (namely: HepG2, Hep3B and Huh7) were measured by using the MTS assay. […] Both Ac-915 and Ac-2010 induced cell death of liver cancer cells at sub- or low micromolar ranges.

Hep3B [9] = assay: MTS cytotoxicity assay (CellTiter 96 AQueous); type: cell-based; conditions: Homo sapiens, 48 h exposure
Experimental: as §5, §6

HepG2 [10] = assay: MTS cytotoxicity assay (CellTiter 96 AQueous); type: cell-based; conditions: Homo sapiens, 48 h exposure
Experimental: as §5, §6

[11] = Solubility (data not shown); type: physicochemical
HepG2 cell migration = assay: Real-time cell migration assay, RTCA DP xCELLigence (CIM-plate 16); type: cell-based, human
[12] = Acute toxicity (data not shown); type: in vivo

T1 sequence (P07237 18-508): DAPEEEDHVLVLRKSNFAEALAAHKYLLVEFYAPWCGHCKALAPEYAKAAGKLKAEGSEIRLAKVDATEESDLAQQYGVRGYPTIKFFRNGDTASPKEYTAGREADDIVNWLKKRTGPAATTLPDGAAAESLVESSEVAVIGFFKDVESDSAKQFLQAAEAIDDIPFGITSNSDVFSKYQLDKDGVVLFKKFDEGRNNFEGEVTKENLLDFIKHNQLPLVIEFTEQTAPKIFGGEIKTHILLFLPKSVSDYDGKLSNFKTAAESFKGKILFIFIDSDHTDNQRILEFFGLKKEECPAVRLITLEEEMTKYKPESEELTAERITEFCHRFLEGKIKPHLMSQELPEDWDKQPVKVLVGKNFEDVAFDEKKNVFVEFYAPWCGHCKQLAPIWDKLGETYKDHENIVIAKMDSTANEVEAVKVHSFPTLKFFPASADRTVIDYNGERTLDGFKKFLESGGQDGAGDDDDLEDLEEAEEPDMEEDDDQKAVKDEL

Structure (SMILES)	Kd (PDI [1])	Intracellular ROS induction (Hep3B [2])	Cytotoxic effect in real time (cell index) (Huh7 [3])	Cytotoxic effect in real time (cell index) (HepG2 [4])	Kd (human HSP90)	Kd (human HSP70)	Intracellular GSH levels (Hep3B [5])	IC50 (PDI [7])	EC50 (Huh7 [8])	EC50 (Hep3B [9])	EC50 (HepG2 [10])	further results
CC(C)c1cccc(C(C)C)c1N1C(=O)c2c(F)c(F)c(F)c(N[C@@H]3C=CS(=O)(=O)C3)c2C1=O [Ac-915, 2-[2,6-bis(propane-2-yl)phenyl]-4-{[(3R)-1,1-dioxo-2,3-dihydro-thiophene-3-yl]amino}-5,6,7-trifluoro-2,3-dihydro-1H-isoindole-1,3-dione]	~10.5 µM	induce intracellular reactive oxygen species	micromolar cytotoxic effects	micromolar cytotoxic effects	11.5 µM	14 µM	depleted intracellular GSH levels	~15 µM	1.66 µM	0.76 µM	1.21 µM	Liver tumor development vs control mice (DEN-induced liver tumors; 10 mg/kg i.p. three times a week for 3 months): significantly less tumor development; Fluorescence in the liver [6]: strong fluorescent signals; Time of peak fluorescence in the liver [6]: 4 h; Fluorescence in the kidney ([6]; 2 and 4 h after administration): strong signals; Fluorescence in the brain ([6]; 1 h after administration): only a slight fluorescence increase; Fluorescence in the heart ([6]; 4 h after administration): minor fluorescence increase
CC(C)c1cccc(C(C)C)c1N1C(=O)c2c(F)c(F)c(F)c(NC(=O)NC(=O)CCl)c2C1=O [Ac-2010]	~6 µM	induce intracellular reactive oxygen species	micromolar cytotoxic effects	micromolar cytotoxic effects	~16 µM	~16 µM	depleted intracellular GSH levels	~9 µM	0.94 µM	0.54 µM	1.05 µM	Solubility compared with Ac-915 [11]: better solubility; Inhibition of cell migration (HepG2 cell migration; 250 nM): inhibited migration; Inhibition of cell migration (HepG2 cell migration; higher concentration, 2 h after administration): completely inhibited cell migration; Liver tumor incidence, number of tumors and liver mass index vs untreated control (DEN-induced liver tumors; 4 mg/kg i.p. three times a week for 1 month, p < 0.01): less liver tumor incidence, fewer tumors and lower liver mass index; Cytotoxicity at the migration-inhibiting concentration (HepG2 [4]; 250 nM, HepG2 cells): no cytotoxicity could be detected; Acute toxicity compared with Ac-915 [12]: higher acute toxicity
